Measurements as given in patent publication US9919941B2, “Multiple uses of amine salts for industrial water treatment” (AMSA, Inc., priority 2012, dated 2018).
“And” between values parts separate entries of the source, which are not always exact repeats. Equal values may be shown once.

Legend:
[1] = calcium carbonate scale inhibition (conductometric titration, supersaturation ratio Sr)
Protocol: To a 100 mL beaker were added 60 mL of HPLC-grade water and 3 mL of 0.1 M calcium chloride. An appropriate amount (0.5-4 mL) of an aqueous solution of the inhibitor compound of Formula (I) to be tested was then added. The solution was magnetically stirred at a constant speed for all experiments. The sample was then titrated with 0.1 M sodium carbonate. After addition of each 0.2 mL aliquot of sodium carbonate titrant, the solution was mixed for 1 min and then the conductivity of the solution measured.
As titrant is added the conductivity increases in a linear fashion. When the supersaturation point is reached, the conductivity decreases and precipitation begins. This is considered the endpoint of the titration. The resulting titration endpoint volumes are used to calculate a relative supersaturation ratio (Sr). This is the ratio of the supersaturation of calcium carbonate in the presence of the compound of Formula (I) being tested to the value of the supersaturation of water without inhibitor (distilled water plus 3 mL of 0.1 M calcium chloride). Thus, compounds with Sr>1 are displaying scale inhibition.
The scale inhibition performance of various compounds of Formula (I) and comparative compounds were compared at the same molar concentration. These compounds were tested at 60 μM concentration except where noted otherwise. Compound numbers are from Table 1.

[2] = copper corrosion inhibition, ASTM G31-72 coupon weight loss
Protocol: (§1) Corrosion inhibition studies of various compounds of Formula (I) were conducted according to ASTM method G31-72 (2004). The following is the general test method.
(§2) Aqueous solutions of the test compound (900 mL) were prepared with city water for mild steel corrosion studies or a dilute sea salt solution (1000 ppm in deionized water) for copper corrosion studies. The solutions were magnetically stirred at a constant rate in a 1 L beaker and three coupons of either mild steel or copper were suspended in each beaker. After 5 days (steel) or 7 days (copper), the coupons were removed and cleaned according to ASTM method G1-03. Average weight loss was determined for each set of three coupons and then converted to corrosion rate in terms of mils per year (mpy).
The first test of copper corrosion inhibition compared Compound A with Compound 13 (from Table 1), 2-hydroxypropane-1,2,3-tricarboxylic acid, and a commercial inhibitor, Na-TAI.

[3] = mild steel corrosion inhibition, ASTM G31-72 coupon weight loss
Protocol: as §1, §2
These tests compare the corrosion inhibition of compounds of Formula (I), namely from Table 1, in the first set of comparisons, Compound A with Compound 13, and Compound B with Compound 1, and with 2-hydroxypropane-1,2,3-tricarboxylic acid. Thus five samples were tested relative to a blank and a standard, (1-hydroxyethan-1,1-diyl)bis(phosphonic acid), after 5 days at 26 μM concentrations. […] Concentrations were 26 μM.
Additional mild steel corrosion tests were performed at 130 μM concentration of compounds of Formula (I) and comparative compounds for 5 days. The next test compared the corrosion inhibition of Compound 8 with 2,3-dihydroxybutanedioic acid and Compound B, and Compound 4 with (1-hydroxyethan-1,1-diyl)bis(phosphonic acid) and Compound B. Also included was Compound 1 for reference. Concentrations in this set were 130 μM.

[4] = 130 μM, Table 5 (blank 12.5 mpy)
[5] = 5 days, 130 μM, Table 4 (blank 24 mpy)

SMILES: CCCCCCCCCCSCCN.Cl [Compound A, 2-(decylthio)ethanamine hydrochloride]
- Sr (supersaturation ratio) ([1]; 60 μM): 1.0
- Sr (supersaturation ratio) ([1]; 64 μM): 1.2
- Inhibition relative to blank ([2]; 7 days, 17 μM, Table 6): 41%
- Inhibition relative to blank ([3]; 5 days, 26 μM, Table 3, hydrochloride): 3.3% and 3%

SMILES: CCCCCCCCCCOCCCN.O=C(O)CC(O)(CC(=O)O)C(=O)O [Compound 1, 2-hydroxypropane-1,2,3-tricarboxylic acid salt of aminopropyloxydecane]
- Sr (supersaturation ratio) ([1]; 60 μM): 1.4
- Inhibition relative to blank ([2]; 42 μM, Table 7): 54%
- Inhibition relative to blank [3, 4]: 87%
- Inhibition relative to blank ([3]; 5 days, 26 μM, Table 3): 60%
- Inhibition relative to blank [3, 5]: 88%

SMILES: CC(=O)O.CCCCCCCCCCOCCCN [Compound B, ethanoic acid salt of aminopropyloxydecane]
- Sr (supersaturation ratio) ([1]; 60 μM): 1.0
- scale inhibition (in words) ([1]; about 60 μM): no scale inhibition
- Inhibition relative to blank ([2]; 42 μM, Table 7): 32%
- Inhibition relative to blank [3, 4]: −1%
- Inhibition relative to blank ([3]; 5 days, 26 μM, Table 3, 26 µM): 1.6% and 2%
- Inhibition relative to blank [3, 5]: −1%
